Measured values from US9562272B2, “Screening method for therapeutic agent for chondropathy and modified chondrocyte for treatment of chondropathy” (KYOTO UNIVERSITY, priority 2011, dated 2017).

Target: T1, SIK3 (Homo sapiens, UniProt Q9Y2K2)
T1 construct: expressed in transfected cells; host or cells: HEK293
Experiment: GAL4-Luc/TORC2 dual-luciferase reporter screening system for SIK3 activity in HEK293 cells
Type: cell-based
Conditions: HEK293 cells transfected with pM-TORC2 and pTarget-SIK3; test substance added 24 h later, treated for 6 hours; DMSO control
Description: Into HEK293 cells, a reporter vector GAL4-Luc (firefly luciferase: pTAL-5XGAL4 (150 ng)), an endogenous reporter vector (Renilla luciferase: pRL-Int (−) (30 ng)), a vector with or without the expression of TORC (pM-TORC2 or pM only (50 ng)) and a vector with or without the expression of SIK3 (pTarget-SIK3 or pTarget only (50 ng)) were introduced using Lipofectamine 2000. Twenty-four hours later, a test substance was added and the cells were further treated for 6 hours. The measurement of the reporter activity was performed using Dual-Luciferase assay kit made by Promega. As the test substance, staurosporine (STS) or a SIK2 inhibitor (Compound C) was used. As a control, DMSO alone was added.
In FIG. 7, the vertical axis represents the activity of TORC2, which is the activity of pM-TORC2 that was calculated by dividing the firefly luciferase activity by the Renilla luciferase activity and is expressed as a multiple of the activity of pM. The white bars and the black bars represent the activities of TORC2 with the absence and presence of SIK3, respectively. […] As is apparent from FIG. 7, the inhibiting activity of staurosporine (STS) on SIK3 was detected.

T1 sequence (Q9Y2K2 whole entry): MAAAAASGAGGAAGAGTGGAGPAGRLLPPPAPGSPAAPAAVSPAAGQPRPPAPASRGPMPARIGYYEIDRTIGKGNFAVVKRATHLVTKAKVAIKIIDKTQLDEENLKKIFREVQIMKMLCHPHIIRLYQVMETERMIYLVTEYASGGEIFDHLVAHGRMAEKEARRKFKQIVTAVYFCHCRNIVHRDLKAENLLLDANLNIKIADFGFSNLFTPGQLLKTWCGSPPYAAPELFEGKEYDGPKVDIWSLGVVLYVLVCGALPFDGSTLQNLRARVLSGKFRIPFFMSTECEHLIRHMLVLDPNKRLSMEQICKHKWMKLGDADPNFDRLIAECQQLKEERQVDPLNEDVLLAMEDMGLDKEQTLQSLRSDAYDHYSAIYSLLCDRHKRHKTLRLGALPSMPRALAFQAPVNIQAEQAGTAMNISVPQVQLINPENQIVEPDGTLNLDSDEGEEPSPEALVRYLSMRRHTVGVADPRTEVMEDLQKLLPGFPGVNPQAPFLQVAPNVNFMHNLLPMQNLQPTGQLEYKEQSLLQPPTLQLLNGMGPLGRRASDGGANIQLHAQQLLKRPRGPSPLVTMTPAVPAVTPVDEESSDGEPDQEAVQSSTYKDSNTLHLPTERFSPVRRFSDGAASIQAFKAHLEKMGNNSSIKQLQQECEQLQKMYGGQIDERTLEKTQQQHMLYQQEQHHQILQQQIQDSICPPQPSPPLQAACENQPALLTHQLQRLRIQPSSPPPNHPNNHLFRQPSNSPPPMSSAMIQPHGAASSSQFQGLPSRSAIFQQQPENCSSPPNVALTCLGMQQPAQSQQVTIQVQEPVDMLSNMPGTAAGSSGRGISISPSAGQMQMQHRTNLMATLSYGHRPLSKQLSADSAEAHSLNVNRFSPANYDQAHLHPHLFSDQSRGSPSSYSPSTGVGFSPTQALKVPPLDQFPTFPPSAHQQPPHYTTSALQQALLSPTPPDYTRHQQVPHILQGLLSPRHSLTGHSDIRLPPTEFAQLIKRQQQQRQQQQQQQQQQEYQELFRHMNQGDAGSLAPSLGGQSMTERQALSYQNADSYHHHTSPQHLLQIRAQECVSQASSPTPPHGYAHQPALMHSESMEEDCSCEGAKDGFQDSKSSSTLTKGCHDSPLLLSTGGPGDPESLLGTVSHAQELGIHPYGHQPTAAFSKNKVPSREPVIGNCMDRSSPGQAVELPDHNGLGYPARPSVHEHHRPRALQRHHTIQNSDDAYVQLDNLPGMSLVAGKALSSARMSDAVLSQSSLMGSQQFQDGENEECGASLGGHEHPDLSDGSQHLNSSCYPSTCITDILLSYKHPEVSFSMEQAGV

SMILES: CN[C@@H]1C[C@H]2O[C@@](C)([C@@H]1OC)n1c3ccccc3c3c4c(c5c6ccccc6n2c5c31)C(=O)NC4 [staurosporine]
- inhibiting activity on SIK3 (activity of TORC2 with absence vs presence of SIK3): detected
